“Also recorded” adds a separate entry of the source. Where two headings read alike, the source gives them in different places.
How the values were obtained:
HIV Nef [1] = system: HIV Nef
HIV Nef [2] = system: HIV Nef; remark: listed apart in the source
primary CD4+ T cells = test: MTT and flow cytometric viability assays in primary CD4+ T cells; format: cell-based, human; details: Nef activity 24 hours, viability 72 hours
Description: CD4^+ T cells were plated at a density of 1×10^5 cells in 200 μL R10-50 in flat-bottom 96-well plates 4 days post-stimulation with PHA. Cells were exposed to titrations of plecomacrolides or solvent controls for 72 hours in culture, at which point viability was assessed relative to solvent by MTT assay in experimental duplicates. Equal volumes of cell culture medium containing CD4^+ T cells were pelleted in 96-well round-bottom plates and incubated in 4.5 mg/mL MTT (Fisher, M6494) in R10 with no Phenol Red at 37° C. until the purple formazan signal was clearly visible. The absorbance of cell pellets resuspended in DMSO was measured at 595 nm on a Molecular Devices Emax precision microplate reader and compared a standard curve of known viable cell numbers to ensure the experimental samples fell within the linear range of the assay.

[3] = system: lysosomal pH in human monocyte-derive macrophages (MDMs); test: Lysosensor Yellow/Blue dextran analysis of lysosomal pH in MDMs; format: cell-based
Description: To measure the lysosomal pH in human monocyte-derive macrophages (MDMs), MDMs adhered to 24-well plates were exposed to 500 μg/mL Lysosensor Yellow/Blue dextran, 10,000 MW (ThermoFisher, L22460) in R10 for 24 hours. MDMs were then exposed to plecomacrolides for 1 hour and harvested with 0.05% Trypsin-EDTA (Gibco 25300054). Cells were washed twice in FACS buffer, and analyzed on a MoFlo Astrios flow cytometer, with blue signal excited from a 354 nm laser and yellow signal excited from a 405 nm laser. A standard curve was generated by resuspending MDMs in equilibration buffers of known pH as previously described. The ratio of blue:yellow fluorescence intensity was calculated for each cell, the median blue:yellow ratio for the cell population for each condition was obtained, and the lysosomal pH in MDMs was calculated for each condition using the standard curve.
Lysosensor Yellow/Blue Dextran Analysis of Lysosomal pH. To measure the lysosomal pH in human MDMs, MDMs adhered to 24-well plates were exposed to 500 μg/mL Lysosensor Yellow/Blue dextran, 10,000 molecular weight (MVV) in R10 for 24 h. MDMs were then exposed to plecomacrolides for 1 h and harvested with 0.05% Trypsin-(ethylenedinitrilo)tetraacetic acid (EDTA). Cells were washed twice in FACS buffer, and analyzed on a flow cytometer, with blue signal excited from a 354-nm laser and yellow signal excited from a 405-nm laser. A standard curve was generated by resuspending MDMs in equilibration buffers of known pH. The ratio of blue:yellow fluorescence intensity was calculated for each cell, the median blue:yellow ratio for the cell population for each condition was obtained, and the lysosomal pH in MDMs was calculated for each condition using the standard curve.

SMILES	reduction of Nef-dependent HLA-A2 downmodulation (HIV Nef [1]; primary T cells transduced with ΔGPE) [fold]	EC50 (HIV Nef [1]; read-out: EC50 for Nef inhibition, HIV-infected primary CD4+ T cells, HLA-A2) [µM]	reduction of Nef-dependent HLA-A2 downmodulation (HIV Nef [2])	difference between the 50% effective and toxic concentrations (EC50 and TC50) (primary CD4+ T cells) [fold]	neutralization of lysosomal pH [3]	EC50 ([3]; 1 hour, read-out: EC50 for lysosome neutralization) [µM]	level of MHC-I restoration compared to CMA (HIV Nef [1])	restoration of MHC-I (HIV Nef [1]; 24 hours post-treatment)	restoration of MHC-I to the surface of Nef-expressing cells (HIV Nef [1]; 48 hours of exposure)	concentration required for restoration of MHC-I compared to CMA (HIV Nef [1]; higher than CMA)
CO/C1=C\C(C)=C\[C@@H](C)[C@@H](O)[C@@H](C)C/C(C)=C/C=C/[C@H](OC)[C@@H]([C@@H](C)[C@@H](O)[C@H](C)[C@@]2(O)C[C@@H](O)[C@H](C)[C@@H](C(C)C)O2)OC1=O [Baf A1]	[…]	[…]	over ten-fold	[…]	completely neutralize lysosomal pH	[…]				
CC[C@H](C)C(=O)O[C@H]1C[C@@H](C)C=C2C=C[C@H](C)[C@H](CC[C@@H]3C[C@@H](O)CC(=O)O3)[C@H]21 [lovastatin, Lovastatin]							a fraction of the levels achieved by CMA; also recorded: did not achieve comparable levels	little restoration of MHC-I	partially restore MHC-I	2,000 fold

Source: patent publication US12594258B2, “Inhibitors of MHC-I Nef downmodulation for treating HIV” (priority 2019, dated 2026)
